Assay results published in patent US7615638B2, “Synthesis of grossularines-1 and analogs thereof and method of use” (City of Hope, priority 2006, dated 2009).
Like-named read-outs stand apart in the source and are kept apart here.

System: DU145 human prostate cancer cells
Test: MTS viability assay in DU145 human prostate cancer cells
Details: for cell viability (cytotoxicity), initial screening: 30 μM compound, DU145 cells (FIG. 8); for IC50: read-out: IC50 (cell viability)
[1] = 0.1 to 20 μM, 48 h, MTS, DU145 cells (FIGS. 9-12)

Experimental: An MTS assay is a colorimetric experimental method to determine the number of viable cells in cytotoxicity assays and utilizes 3-(4,5-dimethylthiazol-2-yl)-5-(3-carboxymethoxyphenyl)-2-(4-sulfophenyl)-2H-tetrazolium, inner salt (MTS).
The experimental setup was as follows: DU145 human prostate cancer cells were obtained from ATCC and cultured in RPMI-1640 medium containing 10% fetal bovine serum (FBS), 100 units/ml of penicillin, and 100 μg/ml streptomycin. All cells were maintained in a 5% CO2 atmosphere at 37° C. To determine the viability of the cells, MTS assays were performed as described by the supplier (Promega; Madison, Wis.). Briefly, cells (5,000/well) were seeded in 96-well plates and incubated overnight at 37° C. in 5% CO2. Cells were treated for 48 h with 30 μM of each compound for initial screenings.
MTS dye was added to each well for 1 h. Cell viability was determined by tetrazolium conversion to its formazan dye and absorbance of formazan was measured at 490 nm. Values are the mean ±SD. Each experiment was performed in quadruplicate.
Dimethyl sulfoxide (DMSO) was used as the vehicle control. MTS dye was added to each 96-well plate well for one hour. Cell viability was determined by tetrazolium conversion to its formazan dye and absorbance of formazan was measured at 490 nm using an automated ELISA plate reader. The production of formazan dye was directly proportional to the number of living cells.
DU145 cells (5,000 cells/each well) were treated in dose-dependent manner for 48 h. Then, MTS assay was performed with four samples for each experiment.

Row | IC50 [1] [µM] | IC50 (Homo sapiens, DU-145, 48 h) [µM] | Compound | cell viability (cytotoxicity), initial screening (48 h, MTS)
1 | 10.3 |  | grossularine-1 [Compound 1] | complete loss of cell viability
2 | 7.3 |  | N,N-didesmethylgrossularine-1 [Compound 2] | complete loss of cell viability
3 |  | 1.8 | CN(C)c1nc2c([nH]1)c(C(=N)c1c[nH]c3ccccc13)nc1[nH]c3ccccc3c12 [Compound 8] | 
